Assay results: patent US10953016B2, “Solid dosage form containing quinazoline derivative” (Shionogi & Co., Ltd., priority 2017, dated 2021)
Structures can show the parent of a compound that is named as a salt.

Legend:
Format in all cases: physicochemical
[1] = Light exposure test of crystals (E isomer by HPLC); conditions: for E isomer (Retention time 38 minutes) Increased amount: light exposed sample minus dark control
[2] = Test of solubility in water for injection; conditions: stirred at 37° C. for 1 hour
Description: 1. Formulation of Calibration Curve
First, 5 mg of monohydrochloride crystalline form I of the compound represented by formula (I) was precisely weighed and dissolved in a mixed solution of acetonitrile:water (1:1), and thus a 500 μg/mL solution was obtained. The obtained solution was diluted with a mixed solution of acetonitrile:water (1:1) such that the concentrations of the compound were 5 and 50 μg/mL, and a standard calibration curve was prepared. The same operation was carried out for monohydrochloride crystalline form II, monohydrochloride crystalline form V, monohydrochloride crystalline form VI, mono-p-toluenesulfonate crystalline form I, and free base crystals.
2. Formulation of Sample Solution
First, 1 mg of monohydrochloride crystalline form I of the compound represented by formula (I) was precisely weighed and transferred to a vial having a volume of 4 mL. Then, 1 mL of water (water for injection) was added, and the mixture was stirred at 37° C. for 1 hour. After being stirred, this suspension was filtered, and the peak area using a solution obtained by diluting the filtrate two-fold with a mixed solution of acetonitrile:water (1:1) as a sample. The concentration was calculated using the peak area and the calibration curve prepared above. The same operation was carried out for monohydrochloride crystalline form II, monohydrochloride crystalline form V, monohydrochloride crystalline form VI, mono-p-toluenesulfonate crystalline form I, and free base crystals.

[3] = Water sorption-desorption isothermal measurement; conditions: ratio of increased moisture mass
Description: Water Sorption-desorption Isothermal Measurement

[4] = Test of solubility in organic solvent; conditions: stirred at 22° C. for 4 hours, supernatant; for Concentration (% by weight) 2-Propanol: suspended in 2-propanol; for Concentration (% by weight) Acetone: suspended in acetone; for Concentration (% by weight) Ethyl acetate: suspended in ethyl acetate
Description: The monohydrochloride crystalline form I, monohydrochloride crystalline form V, and free base crystals of the compound represented by formula (I) were each suspended in 2-propanol, acetone, and ethyl acetate, and stirred at 22° C. for 4 hours, and the concentrations of supernatants were measured.

[5] = Influence of light wavelength on related substances in solution
Description: In order to research the influence of light of the compound represented by formula (I), the amount of the related substances was measured after illumination with constant quantity of light.
A fixed amount of monohydrochloride of the compound represented by formula (I) was collected and dissolved in a mix of pH7 buffer:methanol:acetonitrile=38:31:31 to prepare a solution of 800 μg/mL. The solution was sealed in glass bottles. Thereafter, the glass bottles containing solution were irradiated with light of different wavelengths by a light irradiator (CRM-FA manufactured by Nippon Spectroscopy) and the amounts of related substances were measured.
The amount of the related substances was measured by liquid chromatography by employing the following method and conditions. The main related substance was the E-form of the optical isomer of the compound represented by formula (I). Therefore, in the analysis of the related substance amount, the E-form of the optical isomer of the compound represented by formula (I) was used as a reference for the analysis. • Detector: ultraviolet absorptiometer (measurement wavelength: 225 nm) • Column: Cadenza CW-C18 3μ, 4.6×150 mm (Imtakt) • Column temperature: constant temperature around 35° C. • Mobile Phase A: 10 mM ammonium acetate, […]

[6] = listed as mono-p-toluenesulfonate crystalline form I
[7] = listed as Monohydrochloride form crystal V
[8] = listed as Monohydrochloride form crystal VI

Row | SMILES | E isomer (Retention time 38 minutes) Light exposed sample [1] [area %] | E isomer (Retention time 38 minutes) Increased amount [1] [area %] | Ratio of increased mass [3] | Concentration (% by weight) 2-Propanol [4] [% by weight] | Concentration (% by weight) Acetone [4] [% by weight] | Concentration (% by weight) Ethyl acetate [4] [% by weight] | E isomer (Retention time 38 minutes) Dark control [1] [area %] | Solubility in water for injection [2] | further results
1 | CC#C/C(=N\OC[C@H]1COCCN1)c1ccc2ncnc(Nc3ccc(OCc4cccc(F)c4)c(Cl)c3)c2c1 [Free base crystal] | 2.59 | 2.59 | About 1.0% | 0.49 | 8.1 | 3.3 |  |  | Solubility in water for injection ([2]; listed as free base crystals): not dissolved in water for injection at all
2 | CC#C/C(=N\OC[C@H]1COCCN1)c1ccc2ncnc(Nc3ccc(OCc4cccc(F)c4)c(Cl)c3)c2c1 [Monosulfate crystal] |  |  | About 3.3% |  |  |  |  |  | Ratio of increased mass ([3]; listed as monosulfate crystals): about 3.3%
3 | CC#C/C(=N\OC[C@H]1COCCN1)c1ccc2ncnc(Nc3ccc(OCc4cccc(F)c4)c(Cl)c3)c2c1 [Mono-p-toluenesulfonate crystalline form I] | 32.86 | 32.76 | About 1.4% |  |  |  | 0.10 | high solubilities | E isomer (Retention time 38 minutes) Increased amount [1, 6]: about 33 area %; Ratio of increased mass [3, 6]: small
4 | CC#C/C(=N\OC[C@H]1COCCN1)c1ccc2ncnc(Nc3ccc(OCc4cccc(F)c4)c(Cl)c3)c2c1 |  |  |  |  |  |  |  |  | Total amount of related substances, wavelength of light higher than 450 nm ([5]; 800 μg/mL solution in pH7 buffer:methanol:acetonitrile=38:31:31, light higher than 450 nm): increased little; Total amount of related substances, wavelength of light shorter than 450 nm ([5]; 800 μg/mL solution in pH7 buffer:methanol:acetonitrile=38:31:31, light shorter than 450 nm): increased as the wavelength decreased
5 | CC#C/C(=N\OC[C@H]1COCCN1)c1ccc2ncnc(Nc3ccc(OCc4cccc(F)c4)c(Cl)c3)c2c1 [Monohydrochloride crystalline form V] |  |  | About 1.7% | 0.01 | 0.02 | 0.00 |  | high solubilities | E isomer (Retention time 38 minutes) Dark control [1, 7]: 0.13 area %; E isomer (Retention time 38 minutes) Increased amount [1, 7]: 1.06 area %; E isomer (Retention time 38 minutes) Light exposed sample [1, 7]: 1.19 area %; Ratio of increased mass ([3]; listed as monohydrochloride crystalline form V): small
6 | CC#C/C(=N\OC[C@H]1COCCN1)c1ccc2ncnc(Nc3ccc(OCc4cccc(F)c4)c(Cl)c3)c2c1 [Monohydrochloride crystalline form I] | 4.41 | 3.78 | About 0.8% | 0.03 | 0.08 | 0.01 | 0.63 | high solubilities | Ratio of increased mass ([3]; listed as monohydrochloride crystalline form I): small
7 | CC#C/C(=N\OC[C@H]1COCCN1)c1ccc2ncnc(Nc3ccc(OCc4cccc(F)c4)c(Cl)c3)c2c1 [Monohydrochloride crystalline form VI] |  |  | About 0.5% |  |  |  |  | high solubilities | E isomer (Retention time 38 minutes) Dark control [1, 8]: 1.16 area %; E isomer (Retention time 38 minutes) Increased amount [1, 8]: 0.64 area %; E isomer (Retention time 38 minutes) Light exposed sample [1, 8]: 1.80 area %; Ratio of increased mass ([3]; listed as monohydrochloride crystalline form VI): small
8 | CC#C/C(=N\OC[C@H]1COCCN1)c1ccc2ncnc(Nc3ccc(OCc4cccc(F)c4)c(Cl)c3)c2c1 [Monohydrochloride crystalline form II] | 1.21 | −0.23 | About 0.3% |  |  |  | 1.44 | high solubilities | Ratio of increased mass ([3]; listed as monohydrochloride crystalline form H): small
